# Laboratory results published in patent US8080252B2, “Compounds and methods of modulating angiogenesis” (The Cleveland Clinic Foundation, priority 2006, dated 2011).
# Read-outs that look alike come from different tables or passages of the source. Non-standard residues stand in square brackets, D forms with d. No end group written: not given here. pY = N[C@@H](Cc1ccc(OP(=O)(O)O)cc1)C(=O)O
# What was measured:
# [1] = tested on: cells expressing αvβ3 integrin and VEGFR2; test: Angiogenesis of cells expressing αvβ3 integrin and VEGFR2 with stimulating peptides; type: cell-based; settings: both in the presence and the absence of VEGF
# [2] = tested on: αvβ3 integrin; test: Fibrinogen binding assay, WT and DiYF mouse lung endothelial cells (FACS); type: cell-based; settings: 20 ng/ml VEGF or 1 mM MnCl2
# Method: To assess fibrinogen binding, semiconfluent wild type and DiYF mouse lung endothelial cells were serum starved for 4 h and further induced with 20 ng/ml VEGF-165, 20 ng/ml b-FGF or 1 mm MnCl2. Fluorescein isothiocyanate (FITC)-labeled fibrinogen was added at a final concentration of 200 nM for 45 min. […] Fluorescence-activated cell sorting (FACS) was performed using a FACS Calibur (Becton Dickinson, San Jose, Calif.) and data were analyzed using CellQuest software program.
# [3] = tested on: αvβ3 integrin; test: WOW-1 binding assay, WT and DiYF mouse lung endothelial cells (FACS); type: cell-based; settings: 20 ng/ml VEGF or 1 mM MnCl2
# Method: Wild type and DiYF mouse lung endothelial cells were serum starved for 4 h and further stimulated with 20 ng/ml VEGF-165, 20 ng/ml b-FGF or 1 mm MnCl2 separately. WoW-1 Fab was added at a final concentration of […], followed by addition of Fluorescein isothiocyanate (FITC) conjugated goat anti-mouse IgG at 10 μg/ml. After 30 min cells were fixed with 3.7% formaldehyde/PBS for 15 min, washed twice with 1×PBS and FACS was performed using a FACS Calibur (Becton Dickinson, San Jose, Calif.) instrument and data were analyzed using CellQuest software program.
# [4] = tested on: β3 integrin; test: β3 integrin tyrosine phosphorylation (Tyr-747 and 759) in HUVECs, Western blot; type: cell-based, Human; settings: serum starved HUVECs, 400 nm and 800 nm SU1498
# Method: αvβ3 integrin is expressed on proliferating endothelial cells during angiogenesis and vascular remodeling and the blockade of αvβ3 integrin suppressed angiogenesis in several in vivo models. Therefore, we assessed whether the blockade of αvβ3 affected tyrosine phosphorylation of β3 subunit. […] Cells were also treated with non-immune IgG as control. These cells were washed and further induced with VEGF for 5 min at 37° C. Cell lysates were analyzed for phosphorylation of β3 integrin (Tyr-747 and 759). […] Basal level of β3 integrin tyrosine phosphorylation remains unaffected irrespective of different blocking antibody treatment. To further examine consequences of αvβ3 integrin blocking antibodies, cell lysates were analyzed for tyrosine phosphorylation of VEGFR-2 (Tyr-1175).
# Cytoplasmic domains of integrin β subunits are highly conserved and represents region of structural homology between the various groups. […] Cell lysates were analyzed for the phosphorylation of β3 integrin. […]
# Cells were lysed in immunoprecipitation lysis buffer (1% Noniodet P-40, 150 mM NaCl, 50 mM Tris-HCL (pH 7.8), 2 mM EDTA, 10 mM NaF, 10 mM Na2P2O7, 2 mM Na3VO4 10 μg/mL leupeptin, 4 μg/mL pepstatin and 0.1 U/mL aprotinin). […] Bands were analyzed by densitomeric analysis using Kodak 1D software and fold changes were indicated.
# [5] = tested on: HUVECs; test: Cell migration assay of HUVECs on vitronectin, VEGF as agonist (Example 5); type: cell-based, Human; settings: vitronectin as substrate
# Method: (§1) To assess the role of Src-mediated β3 integrin tyrosine phosphorylation in αvβ3 integrin dependent EC migration, HUVECs transfected with various forms of Src were evaluated in migration assays using VEGF as an agonist and vitronectin as a substrate. […] To further evaluate the c-Src mediated β3 integrin cytoplasmic tyrosine motifs phosphorylation in αvβ3 integrin dependent endothelial cell migration, wild type and DiYF mouse lung microvascular endothelial cells were transfected with wild type, dominant negative and catalytically active form of c-Src and stimulated with VEGF (FIG. 23 B).
# (§2) Transwell tissue culture inserts were coated with αvβ3 integrin ligand vitronectin for 24 h at 4° C. Endothelial cells were transfected with various forms of c-Src or treated with inhibitors and were trypsinized; then 1×10^5 cells were added into each well. Cells were allowed to migrate for 12 h and fixed with 70% methanol for 15 min and stained with Giemsa. The non-migrated cells adhered to the top surface were removed and three random 10× fields were photographed using an inverted phase contrast microscopy.
# [6] = tested on: HUVECs (Human Umbilical vascular endothelial cells); settings: HUVECs on Matrigel, 8 h
# Description: The tube formation was observed using an inverted phase contrast microscope (Leica) and photographs were taken from each well. Using ImagePro software, the degree of tube formation was quantified by measuring the length of tubes in random fields.
# [7] = molecular target: T1, αvβ3 integrin (Homo sapiens, UniProt P05106+P06756); test: WOW-1 binding assay in HUVECs (αvβ3 integrin activation, FACS); type: cell-based; settings: 20 ng/mL
# T1 construct: Semiconfluent HUVECs were serum starved for 4 h and further stimulated with 20 ng/mL VEGF-A165 or VEGFDΔNΔC; endogenous in cells; host or cells: HUVEC
# T1 sequence (P06756 31-1048): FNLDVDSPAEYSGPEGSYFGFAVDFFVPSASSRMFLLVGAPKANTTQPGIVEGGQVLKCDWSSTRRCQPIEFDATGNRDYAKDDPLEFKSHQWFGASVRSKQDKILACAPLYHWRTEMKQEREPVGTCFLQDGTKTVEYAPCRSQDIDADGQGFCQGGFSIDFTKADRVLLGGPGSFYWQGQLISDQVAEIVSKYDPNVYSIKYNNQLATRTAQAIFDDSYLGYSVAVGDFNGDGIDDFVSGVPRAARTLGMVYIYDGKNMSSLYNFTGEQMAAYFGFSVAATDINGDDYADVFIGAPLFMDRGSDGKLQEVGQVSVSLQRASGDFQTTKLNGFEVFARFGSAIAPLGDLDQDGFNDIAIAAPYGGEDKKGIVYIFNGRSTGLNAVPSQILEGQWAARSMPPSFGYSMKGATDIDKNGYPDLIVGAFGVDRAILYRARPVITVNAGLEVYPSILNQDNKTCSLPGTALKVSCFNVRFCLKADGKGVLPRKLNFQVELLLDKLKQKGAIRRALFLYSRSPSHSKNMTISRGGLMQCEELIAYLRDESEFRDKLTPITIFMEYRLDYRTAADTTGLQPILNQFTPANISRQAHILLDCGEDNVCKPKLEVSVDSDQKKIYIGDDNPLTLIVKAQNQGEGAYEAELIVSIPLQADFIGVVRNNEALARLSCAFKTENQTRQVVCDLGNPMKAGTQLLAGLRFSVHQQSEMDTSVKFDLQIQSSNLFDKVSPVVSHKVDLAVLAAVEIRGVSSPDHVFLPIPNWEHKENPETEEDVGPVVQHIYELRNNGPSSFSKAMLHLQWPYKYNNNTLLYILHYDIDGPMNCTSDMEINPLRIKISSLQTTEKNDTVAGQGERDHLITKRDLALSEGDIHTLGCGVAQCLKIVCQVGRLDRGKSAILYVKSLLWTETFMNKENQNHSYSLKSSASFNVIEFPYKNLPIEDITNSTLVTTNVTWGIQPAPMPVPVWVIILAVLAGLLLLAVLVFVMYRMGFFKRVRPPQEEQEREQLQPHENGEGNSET
# T1 sequence (P05106 27-788): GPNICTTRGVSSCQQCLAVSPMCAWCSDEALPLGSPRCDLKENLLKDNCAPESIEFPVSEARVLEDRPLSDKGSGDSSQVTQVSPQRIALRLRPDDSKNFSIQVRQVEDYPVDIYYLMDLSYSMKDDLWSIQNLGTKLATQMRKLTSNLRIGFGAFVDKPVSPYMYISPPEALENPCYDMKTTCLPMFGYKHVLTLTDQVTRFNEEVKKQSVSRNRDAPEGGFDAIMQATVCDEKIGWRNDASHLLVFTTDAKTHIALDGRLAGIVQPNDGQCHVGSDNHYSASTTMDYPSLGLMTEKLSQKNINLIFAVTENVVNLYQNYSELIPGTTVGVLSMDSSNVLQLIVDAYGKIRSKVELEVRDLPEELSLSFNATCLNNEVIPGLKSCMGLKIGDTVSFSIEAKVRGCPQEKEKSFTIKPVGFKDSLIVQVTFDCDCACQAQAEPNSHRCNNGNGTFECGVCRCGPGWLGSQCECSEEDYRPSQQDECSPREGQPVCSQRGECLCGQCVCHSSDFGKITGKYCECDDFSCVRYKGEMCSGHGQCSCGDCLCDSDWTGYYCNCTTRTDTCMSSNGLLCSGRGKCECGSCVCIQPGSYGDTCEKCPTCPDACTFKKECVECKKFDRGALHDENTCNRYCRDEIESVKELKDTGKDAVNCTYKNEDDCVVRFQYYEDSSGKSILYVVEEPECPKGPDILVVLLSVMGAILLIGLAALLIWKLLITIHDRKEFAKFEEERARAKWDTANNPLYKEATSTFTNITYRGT
# Method: Semiconfluent HUVECs were serum starved for 4 h and further stimulated with 20 ng/mL VEGF-A165 or VEGFDΔNΔC. WOW-1 Fab was added to a final concentration of 30 μg/mL, followed by addition of FITC-conjugated goat anti-mouse IgG at 10 μg/mL. After 30 min cells were fixed with 3.7% formaldehyde in PBS for 15 min, washed twice with PBS, and fluorescence-activated cell sorting (FACS) was performed using a FACS Calibur (Becton Dickinson, San Jose, Calif.) and data were analyzed using CellQuest software.
# Semiconfluent HUVECs were transfected with various forms of c-Src or Src++. SYF, SYF+Src cells were serum starved for 4 h and further stimulated with 20 ng/mL VEGF-A165 or b-FGF. WOW-1 Fab was added at a final concentration of 30 μg/mL, followed by addition of FITC-conjugated goat anti-mouse IgG at 10 μg/mL. After 30 min cells were fixed with 3.7% formaldehyde/PBS for 15 min, washed twice with PBS, and FACS analysis was performed as described above.
# [8] = tested on: mouse lung endothelial cells; settings: 20 ng/ml VEGF, 8 h
# Method: The formation of vascular tube-like structures by wild type and DiYF mouse lung endothelial cells were assessed on the basement membrane matrix preparation. Six well plates were coated with 0.5 ml of Matrigel according to the manufacturer's instructions. Wild type and DiYF mouse lung endothelial cells were detached from the tissue culture flasks using 20 mM EDTA. Cells were washed twice with sterile 1×PBS and seeded on Matrigel coated plate. Medium was supplemented with or without 20 ng/ml VEGF and further incubated at 37° C. for 8 h. The tube formation was observed using an inverted phase contrast microscope (Leica) and photographs were taken from each well. Using ImagePro software, the degree of tube formation was quantified by measuring the length of tubes in random fields.
# [9] = tested on: mouse lung endothelial cells; settings: WT EC
# Method: Transwell tissue culture inserts were coated with various integrin ligands for 24 h at 4° C. Both WT and DiYF lung endothelial cells were trypsinized and 1×10^5 cells were added into each well. The lower chamber contained varying concentrations of VEGF-A165 (0-20 ng/ml). Cells were allowed to migrate for 12 h and fixed with 3.7% formaldehyde/PBS for 15 min and stained with 0.5% crystal violet. The non-migrated cells adhered to the top surface were removed and three random 10× fields were photographed using Leica inverted phase contrast microscope.
# [10] = molecular target: T2, VEGFR-2 (Mus musculus, UniProt P35918); test: VEGFR-2 phosphorylation time course in WT and DiYF mouse endothelial cells; type: cell-based; settings: 20 ng/ml VEGF
# T2 construct: Serum starved wild type and DiYF endothelial cells were also treated with 20 ng/ml VEGF for 0-60 mins; endogenous in cells; host or cells: primary mouse lung endothelial cells (WT and DiYF knock-in, C57/Bl6)
# T2 sequence (P35918 20-1345): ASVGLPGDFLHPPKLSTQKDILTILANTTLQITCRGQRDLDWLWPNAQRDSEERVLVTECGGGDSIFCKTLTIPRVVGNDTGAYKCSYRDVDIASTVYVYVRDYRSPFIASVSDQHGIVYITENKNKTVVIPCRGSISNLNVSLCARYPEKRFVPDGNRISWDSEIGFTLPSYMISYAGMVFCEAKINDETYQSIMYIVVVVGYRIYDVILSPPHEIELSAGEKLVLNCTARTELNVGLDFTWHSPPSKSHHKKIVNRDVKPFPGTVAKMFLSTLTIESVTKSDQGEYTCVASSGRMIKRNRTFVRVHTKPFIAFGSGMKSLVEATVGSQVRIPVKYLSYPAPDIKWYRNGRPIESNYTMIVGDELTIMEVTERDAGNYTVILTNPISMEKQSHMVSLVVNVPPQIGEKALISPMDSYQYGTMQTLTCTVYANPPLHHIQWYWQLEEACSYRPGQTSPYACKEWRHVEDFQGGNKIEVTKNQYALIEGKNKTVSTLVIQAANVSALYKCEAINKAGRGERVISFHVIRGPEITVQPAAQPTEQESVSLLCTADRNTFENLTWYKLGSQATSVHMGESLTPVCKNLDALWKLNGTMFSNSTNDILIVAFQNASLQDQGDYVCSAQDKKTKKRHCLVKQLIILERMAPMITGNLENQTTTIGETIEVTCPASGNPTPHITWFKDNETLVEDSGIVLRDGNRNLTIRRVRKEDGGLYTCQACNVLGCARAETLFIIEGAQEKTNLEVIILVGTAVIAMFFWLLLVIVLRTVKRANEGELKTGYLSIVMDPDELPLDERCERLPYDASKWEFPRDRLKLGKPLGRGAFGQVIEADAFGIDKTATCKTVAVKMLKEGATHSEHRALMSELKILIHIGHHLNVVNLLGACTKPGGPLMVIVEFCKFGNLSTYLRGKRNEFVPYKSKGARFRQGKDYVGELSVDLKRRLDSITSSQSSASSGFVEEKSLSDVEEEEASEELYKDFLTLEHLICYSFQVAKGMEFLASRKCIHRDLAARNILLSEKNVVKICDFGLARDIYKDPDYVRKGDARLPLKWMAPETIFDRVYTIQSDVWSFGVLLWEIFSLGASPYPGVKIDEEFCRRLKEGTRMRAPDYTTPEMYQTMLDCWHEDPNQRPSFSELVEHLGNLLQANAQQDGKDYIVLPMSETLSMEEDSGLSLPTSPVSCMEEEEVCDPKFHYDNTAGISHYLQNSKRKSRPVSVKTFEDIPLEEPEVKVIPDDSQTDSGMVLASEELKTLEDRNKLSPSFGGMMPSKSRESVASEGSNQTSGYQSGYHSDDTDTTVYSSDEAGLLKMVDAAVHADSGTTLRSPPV
# Method: Serum starved wild type and DiYF endothelial cells were also treated with 20 ng/ml VEGF for 0-60 mins. Cell lysates were analyzed by Western blot using anti-integrin β3 [pY^747], anti-integrin [pY^759], anti-p-VEGFR-2, anti-VEGFR-2, anti-p-ERK1/2, anti-ERK1/2, anti-p-Akt, anti-Akt, anti-p-P38MAPK and anti-MAPK antibody. The wild type and DiYF endothelial cells were lysed and equal proteins from total cell lysates were subjected SDS-PAGS and analyzed by western blot using anti-VEGFR-2 and anti-CD-31 antibody.
# [11] = tested on: mouse lung microvascular endothelial cells
# Method: as §1, §2
molecule,measurement,setting,value
"KEATSTFTNITYpRGT-COOH (KEATSTFTNIT[pY]RGT-OH; N-terminus assumed; SMILES CC[C@H](C)[C@H](NC(=O)[C@H](CC(N)=O)NC(=O)[C@@H](NC(=O)[C@H](Cc1ccccc1)NC(=O)[C@@H](NC(=O)[C@H](CO)NC(=O)[C@@H](NC(=O)[C@H](C)NC(=O)[C@H](CCC(=O)O)NC(=O)[C@@H](N)CCCCN)[C@@H](C)O)[C@@H](C)O)[C@@H](C)O)C(=O)N[C@H](C(=O)N[C@@H](Cc1ccc(OP(=O)(O)O)cc1)C(=O)N[C@@H](CCCNC(=N)N)C(=O)NCC(=O)N[C@H](C(=O)O)[C@@H](C)O)[C@@H](C)O; listed as Homo sapiens) [SEQ ID NO: 15, stimulating peptide; β3 integrin cytoplasmic peptide specific for tyrosine-759]",effect on angiogenesis,[1],promote angiogenesis
"[Cl][Mn][Cl] [MnCl2, reference compound]",increase of fibrinogen binding,[2]; DiYF EC,17 fold
same,increase of fibrinogen binding,[2]; WT EC,at least 40 fold
same,increase in WOW-1 binding,[3]; DiYF EC,14 fold
same,increase in WOW-1 binding,[3]; WT EC,30 fold
CC(C)c1cc(/C=C(\C#N)C(=O)NCCCc2ccccc2)cc(C(C)C)c1O [SU1498],effect on VEGF induced β3 integrin cytoplasmic tyrosine residue phosphorylation,[4],significantly reduced
same,effect on EC migration triggered by VEGF,[5],reduced EC migration triggered by VEGF
VEGF,endothelial cell tube formation induced,[6],at least 450 μm/mm^2
same,increase of WOW-1 binding to EC compared to resting cells,[7],6 fold
same,effect on the length of the tubes,[8]; DiYF EC,little effect
same,increase in the length of the tubes,[8]; WT EC,about 3 fold
same,increase of migration compared to untreated EC,[9]; VEGF 5 ng/ml,1.5 fold
same,increase of migration compared to untreated EC,[9]; VEGF 10 ng/ml,2.5 fold
same,increase of migration compared to untreated EC,[9]; VEGF 20 ng/ml,2.9 fold
same,maximum increase in VEGFR-2 phosphorylation over control,[10]; DiYF EC,2.5 fold
same,maximum increase in VEGFR-2 phosphorylation over control,[10]; WT EC,6 fold
same,increase of fibrinogen binding,[2]; DiYF EC,3 fold
same,increase of fibrinogen binding,[2]; WT EC,at least 6 fold
same,increase in WOW-1 binding,[3]; DiYF EC,3.5 fold
same,increase in WOW-1 binding,[3]; WT EC,9 fold
same,increase in endothelial cell migration,[11]; CA-Src transfected wild type endothelial cells,3.5 fold
same,increase in endothelial cell migration,[11]; WT-Src transfected wild type endothelial cells,2.5 fold
"YGRKKRRQRRRGKEATSTFTNITYpRGT-COOH (YGRKKRRQRRRGKEATSTFTNIT[pY]RGT-OH; N-terminus assumed; SMILES CC[C@H](C)[C@H](NC(=O)[C@H](CC(N)=O)NC(=O)[C@@H](NC(=O)[C@H](Cc1ccccc1)NC(=O)[C@@H](NC(=O)[C@H](CO)NC(=O)[C@@H](NC(=O)[C@H](C)NC(=O)[C@H](CCC(=O)O)NC(=O)[C@H](CCCCN)NC(=O)CNC(=O)[C@H](CCCNC(=N)N)NC(=O)[C@H](CCCNC(=N)N)NC(=O)[C@H](CCCNC(=N)N)NC(=O)[C@H](CCC(N)=O)NC(=O)[C@H](CCCNC(=N)N)NC(=O)[C@H](CCCNC(=N)N)NC(=O)[C@H](CCCCN)NC(=O)[C@H](CCCCN)NC(=O)[C@H](CCCNC(=N)N)NC(=O)CNC(=O)[C@@H](N)Cc1ccc(O)cc1)[C@@H](C)O)[C@@H](C)O)[C@@H](C)O)C(=O)N[C@H](C(=O)N[C@@H](Cc1ccc(OP(=O)(O)O)cc1)C(=O)N[C@@H](CCCNC(=N)N)C(=O)NCC(=O)N[C@H](C(=O)O)[C@@H](C)O)[C@@H](C)O; listed as Homo sapiens) [SEQ ID NO: 13, stimulating peptide]",effect on angiogenesis,[1],promote angiogenesis
